Organism: Rattus norvegicus
Assay: DrugMatrix - Regimen: Daily Repeat
Format: toxicity, organism-based, Sprague-Dawley
Parameters: regimen Daily Repeat, gender Male, age 6-8 weeks
Conditions: in vivo, po, route oral GAVAGE, vehicle 100 % WATER; for ABSOLUTE BASOPHIL / ABSOLUTE EOSINOPHIL / ABSOLUTE LYMPHOCYTE / ABSOLUTE MONOCYTE / ABSOLUTE SEGMENTED NEUTROPHIL / BASOPHIL / EOSINOPHIL / ERYTHROCYTE COUNT / HEMATOCRIT / HEMOGLOBIN / LEUKOCYTE COUNT / LYMPHOCYTE / MEAN CORPUSCULAR HEMOGLOBIN / MEAN CORPUSCULAR HEMOGLOBIN CONCENTRATION / MEAN CORPUSCULAR VOLUME / MONOCYTE / NEUTROPHIL / NUCLEATED RED BLOOD CELLS / PLATELET COUNT: tissue Blood; for ALANINE AMINOTRANSFERASE / ALBUMIN / ALKALINE PHOSPHATASE / ASPARTATE AMINOTRANSFERASE / BLOOD UREA NITROGEN / CARBON DIOXIDE / CHLORIDE / CHOLESTEROL / CREATINE PHOSPHOKINASE / CREATININE / GLUCOSE / LACTATE DEHYDROGENASE / LIPASE / PHOSPHORUS / SODIUM / TOTAL BILIRUBIN / TOTAL PROTEIN / URIC ACID: tissue Plasma
[1] = 0 mg/kg, 72 h, dose level Control, time 3 day
[2] = 0 mg/kg, 120 h, dose level Control, time 5 day
[3] = 200 mg/kg, 72 h, dose level Low, time 3 day

Compound: CC1(C)S[C@@H]2[C@H](NC(=O)[C@H](N)c3ccc(O)cc3)C(=O)N2[C@H]1C(=O)O [AMOXICILLIN]
- ABSOLUTE BASOPHIL [1]: 0 CELLS/uL
- ABSOLUTE EOSINOPHIL [1]: 25 CELLS/uL
- ABSOLUTE LYMPHOCYTE [1]: 14357 CELLS/uL
- ABSOLUTE MONOCYTE [1]: 456.33 CELLS/uL
- ABSOLUTE SEGMENTED NEUTROPHIL [1]: 1461.67 CELLS/uL
- BASOPHIL [1]: 0%
- EOSINOPHIL [1]: 0.17%
- ERYTHROCYTE COUNT [1]: 5.85 x10E6/uL
- HEMATOCRIT [1]: 37.62%
- HEMOGLOBIN [1]: 13.87 G/DL
- LEUKOCYTE COUNT [1]: 16.3 x10E3/uL
- LYMPHOCYTE [1]: 88%
- MEAN CORPUSCULAR HEMOGLOBIN [1]: 23.68 pg
- MEAN CORPUSCULAR HEMOGLOBIN CONCENTRATION [1]: 36.88 G/DL
- MEAN CORPUSCULAR VOLUME [1]: 64.23 fL
- MONOCYTE [1]: 2.83%
- NEUTROPHIL [1]: 9%
- NUCLEATED RED BLOOD CELLS [1]: 0 /100WBC
- PLATELET COUNT [1]: 1125.33 x10E3/uL
- ALANINE AMINOTRANSFERASE [1]: 49.67 u/L
- ALBUMIN [1]: 4.23 G/DL
- ALKALINE PHOSPHATASE [1]: 400.83 u/L
- ASPARTATE AMINOTRANSFERASE [1]: 89.17 u/L
- BLOOD UREA NITROGEN [1]: 16 mg/dL
- CARBON DIOXIDE [1]: 31.83 mmol/L
- CHLORIDE [1]: 99 MEQ/L
- CHOLESTEROL [1]: 76 mg/dL
- CREATINE PHOSPHOKINASE [1]: 777.67 u/L
- CREATININE [1]: 0.22 mg/dL
- GLUCOSE [1]: 158.33 mg/dL
- LACTATE DEHYDROGENASE [1]: 186.17 u/L
- LIPASE [1]: 9.33 u/L
- PHOSPHORUS [1]: 12.95 mg/dL
- SODIUM [1]: 141.53 MEQ/L
- TOTAL BILIRUBIN [1]: 0.18 mg/dL
- TOTAL PROTEIN [1]: 6.08 G/DL
- URIC ACID [1]: 1.77 mg/dL
- ABSOLUTE BASOPHIL [2]: 0 CELLS/uL
- ABSOLUTE EOSINOPHIL [2]: 0 CELLS/uL
- ABSOLUTE LYMPHOCYTE [2]: 8994.5 CELLS/uL
- ABSOLUTE MONOCYTE [2]: 122.33 CELLS/uL
- ABSOLUTE SEGMENTED NEUTROPHIL [2]: 666.5 CELLS/uL
- BASOPHIL [2]: 0%
- EOSINOPHIL [2]: 0%
- ERYTHROCYTE COUNT [2]: 5.74 x10E6/uL
- HEMATOCRIT [2]: 35.17%
- HEMOGLOBIN [2]: 13.28 G/DL
- LEUKOCYTE COUNT [2]: 9.78 x10E3/uL
- LYMPHOCYTE [2]: 92.33%
- MEAN CORPUSCULAR HEMOGLOBIN [2]: 23.15 pg
- MEAN CORPUSCULAR HEMOGLOBIN CONCENTRATION [2]: 37.8 G/DL
- MEAN CORPUSCULAR VOLUME [2]: 61.27 fL
- MONOCYTE [2]: 1.33%
- NEUTROPHIL [2]: 6.33%
- NUCLEATED RED BLOOD CELLS [2]: 0 /100WBC
- PLATELET COUNT [2]: 1117 x10E3/uL
- ALANINE AMINOTRANSFERASE [2]: 47.83 u/L
- ALBUMIN [2]: 4.33 G/DL
- ALKALINE PHOSPHATASE [2]: 414.5 u/L
- ASPARTATE AMINOTRANSFERASE [2]: 77.5 u/L
- BLOOD UREA NITROGEN [2]: 17 mg/dL
- CARBON DIOXIDE [2]: 32.33 mmol/L
- CHLORIDE [2]: 99.33 MEQ/L
- CHOLESTEROL [2]: 76.33 mg/dL
- CREATINE PHOSPHOKINASE [2]: 363.67 u/L
- CREATININE [2]: 0.25 mg/dL
- GLUCOSE [2]: 173.5 mg/dL
- LACTATE DEHYDROGENASE [2]: 129.33 u/L
- LIPASE [2]: 9.17 u/L
- PHOSPHORUS [2]: 11.52 mg/dL
- SODIUM [2]: 143.85 MEQ/L
- TOTAL BILIRUBIN [2]: 0.2 mg/dL
- TOTAL PROTEIN [2]: 6.43 G/DL
- URIC ACID [2]: 0.97 mg/dL
- ABSOLUTE BASOPHIL [3]: 0 CELLS/uL
- ABSOLUTE EOSINOPHIL [3]: 109.67 CELLS/uL
- ABSOLUTE LYMPHOCYTE [3]: 14631 CELLS/uL
- ABSOLUTE MONOCYTE [3]: 211.33 CELLS/uL
- ABSOLUTE SEGMENTED NEUTROPHIL [3]: 914.67 CELLS/uL
- BASOPHIL [3]: 0%
- EOSINOPHIL [3]: 0.67%
- ERYTHROCYTE COUNT [3]: 5.96 x10E6/uL
- HEMATOCRIT [3]: 38.03%
- HEMOGLOBIN [3]: 14 G/DL
- LEUKOCYTE COUNT [3]: 15.87 x10E3/uL
- LYMPHOCYTE [3]: 92.33%
- MEAN CORPUSCULAR HEMOGLOBIN [3]: 23.53 pg
- MEAN CORPUSCULAR HEMOGLOBIN CONCENTRATION [3]: 36.8 G/DL
- MEAN CORPUSCULAR VOLUME [3]: 63.87 fL
- MONOCYTE [3]: 1.33%
- NEUTROPHIL [3]: 5.67%
- NUCLEATED RED BLOOD CELLS [3]: 0 /100WBC
- PLATELET COUNT [3]: 1509.33 x10E3/uL
- ALANINE AMINOTRANSFERASE [3]: 49.33 u/L
- ALBUMIN [3]: 4.4 G/DL
- ALKALINE PHOSPHATASE [3]: 350 u/L
- ASPARTATE AMINOTRANSFERASE [3]: 82.33 u/L
- BLOOD UREA NITROGEN [3]: 15.33 mg/dL
- CARBON DIOXIDE [3]: 31.33 mmol/L
- CHLORIDE [3]: 99.33 MEQ/L
- CHOLESTEROL [3]: 96.33 mg/dL
- CREATINE PHOSPHOKINASE [3]: 449.67 u/L
- CREATININE [3]: 0.21 mg/dL
- GLUCOSE [3]: 146 mg/dL
- LACTATE DEHYDROGENASE [3]: 163.67 u/L
- LIPASE [3]: 10.33 u/L
- PHOSPHORUS [3]: 11.9 mg/dL
- SODIUM [3]: 142.1 MEQ/L
- TOTAL BILIRUBIN [3]: 0.2 mg/dL
- TOTAL PROTEIN [3]: 6.37 G/DL
- URIC ACID [3]: 2.03 mg/dL

— ChEMBL document CHEMBL3885881, “DrugMatrix”
